The supplement of paper PMC10307832

What was measured:
Assay in all cases: relative viability (nuclei count vs DMSO), 5 days (fraction); higher = more cells survive
[1] = compound: C1CNCCC1C2=CC(=NN2)C3=CC=NC=C3
How it was run: (§1)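 After an overnight hold at 37 °C, lung cancer cell lines in 1536-well plates were pinned with five library-drug doses (not always all listed), each √10 from the next, on vehicle-anchored plates. The cells stayed 5 days without fresh medium, then a one-step fix, permeabilisation and Hoechst stain preceded 4× imaging and MetaXpress nuclear counts. A plate passed only with control CV under 25% and at least one doubling. Viability is the median, over plates, of treated-well nuclei relative to vehicle-well nuclei.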

[2] = compound: C[C@@H](N)c1ccc(C(=O)Nc2ccnc3[nH]ccc23)cc1
How it was run: as §1

Tanzisertib = compound: O[C@H]1CC[C@H](Nc2ncc3nc(Nc4c(F)cc(F)cc4F)n([C@H]4CCOC4)c3n2)CC1 [Tanzisertib]
How it was run: as §1

[3] = compound: C[C@@H](N)c1ccc(C(=O)Nc2ccnc3[nH]ccc23)cc1 + Cc1nc(Nc2ncc(C(=O)Nc3c(C)cccc3Cl)s2)cc(N2CCN(CCO)CC2)n1 [Dasatinib] (partner 0.075 µM)
How it was run: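 Cells from lung cancer lines were seeded into 1536-well plates and, one day later, dosed by pin tool. Treatments were either a single drug or a fixed dose of an anchor drug with five library-drug doses (not always all listed) in √10 steps. After 5 days, nuclei were stained in a one-step fixation (final 0.05% Triton X-100, 1% formaldehyde, 1 ug/ml Hoechst) and counted on 4× images, and relative viability is the treated-to-vehicle nuclei ratio, as the median of duplicate plates.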

Cell Line	relative viability ([1]; 0.08 µM)	relative viability ([1]; 0.8 µM)	relative viability ([1]; 2.53 µM)	relative viability ([1]; 8 µM)	relative viability ([2]; 0.04 µM)	relative viability ([2]; 0.1265 µM)	relative viability ([2]; 0.4 µM)	relative viability ([2]; 1.265 µM)	relative viability ([2]; 4 µM)	relative viability (Tanzisertib; 0.08 µM)	relative viability (Tanzisertib; 0.253 µM)	relative viability (Tanzisertib; 0.8 µM)	relative viability (Tanzisertib; 2.53 µM)	relative viability (Tanzisertib; 8 µM)	relative viability ([3]; first compound 0.04 µM)	relative viability ([3]; first compound 0.1265 µM)	relative viability ([3]; first compound 0.4 µM)	relative viability ([3]; first compound 1.265 µM)	relative viability ([3]; first compound 4 µM)
NCI-H1650	0.752	0.995	0.987	0.955	0.933	1.05	0.951	0.977	0.867	0.953	1	0.93	0.864	0.771	0.42	0.402	0.428	0.39	0.311
NCI-H1651	0.956	1.01	0.989	0.967	1.02	1	1.07	1.13	1.09	1.03	1.01	0.933	0.886	0.92	0.389	0.429	0.414	0.288	0.41
NCI-H1666	0.927	1.04	1.11	0.981	1.13	1.06	1.23	1.23	1.26	0.966	1.04	1.03	1.07	1.09	0.727	0.803	0.822	0.722	0.625
NCI-H1734	0.945	1.01	1.05	0.968	0.833	1.08	0.929	0.568	0.819	1.25	1.01	0.945	1.06	0.927	0.347	0.445	0.38	0.284	0.351
NCI-H1755	1.01	0.915	1.03	0.948	0.911	0.987	0.945	0.937	0.793	1.02	0.958	1	0.97	0.961	0.292	0.449	0.457	0.316	0.223
NCI-H1792	0.945	0.903	0.976	0.95	0.948	0.735	0.945	0.649	0.827	1.03	1.07	0.939	0.899	0.606	0.831	0.875	0.826	0.672	0.534
NCI-H1793	0.835	0.702	0.923	0.878	0.973	0.952	1.08	–	1.11	1.07	0.857	0.998	0.758	0.522	0.308	0.419	0.418	–	0.298
NCI-H1915	0.968	1.07	0.999	0.977	0.856	1.02	0.962	–	0.884	1.12	1.04	0.957	1.01	0.875	0.315	0.262	0.276	–	0.308
NCI-H1944	0.903	0.964	0.987	1.01	1.01	0.987	1.02	0.822	0.793	1.14	0.966	0.971	1	0.86	0.183	0.192	0.182	0.183	0.159
NCI-H1975	0.969	0.873	0.998	0.964	0.838	0.875	0.942	0.72	0.602	0.935	1.02	0.934	0.955	0.874	0.408	0.459	0.363	0.369	0.262
NCI-H1993	0.889	0.911	0.978	1.02	0.989	1.1	–	0.9	0.996	1.06	0.952	0.969	0.822	0.786	0.745	0.754	0.856	0.917	0.8
NCI-H2009	1.03	1.07	1.07	1	0.978	1.02	0.958	0.922	0.813	1.08	1.04	0.999	1.12	1.06	0.18	0.268	0.199	0.171	0.154
NCI-H2023	0.821	1.1	1.08	1	1.04	1.06	1.12	0.942	1.02	1.1	0.958	1	0.907	0.899	0.592	0.56	0.502	0.487	0.465
NCI-H2085	1.09	–	1.01	0.983	0.944	0.96	0.958	0.935	0.861	0.987	0.991	1.02	1.03	0.976	0.294	0.322	0.421	0.33	0.391
